Assay results as given in ChEMBL document CHEMBL4831477, “Structure-Enabled Discovery of Novel Macrocyclic Inhibitors Targeting Glutaminase 1 Allosteric Binding Site” (J Med Chem, 2021).
In brackets after ≈: the same amount, converted by molar mass. Activity calls are given as the source filed them. The rule behind the calls is not given here.

Tests used:
[1] = Acute toxicity in BALB/c nude mouse assessed as heart damage at 200 mg/kg, po administered twice daily for 4 weeks by H and E staining based optical microscopic analysis; format: organism-based; settings: in vivo, 672 h
HCT-116 [2] = assay: Induction of ROS generation in human HCT-116 cells incubated for 6 hrs by DCFH-DA dye based flow cytometric analysis; format: functional, cell-based; settings: dose 50-500 nM
[3] = Intrinsic aqueous solubility of compound at pH 7.4 by LC-MS based shake-flask method; format: physicochemical; settings: read-out: Intrinsic_solubility
[4] = Metabolic stability in mouse plasma assessed as compound remaining after 2 hrs by LC-MS/MS analysis; format: ADME, cell-free; settings: read-out: Stability
[5] = Half life in Sprague-Dawley rat at 200 mg/kg, po measured upto 72 hrs by LC-MS/MS analysis; format: ADME, organism-based; settings: in vivo
[6] = Cmax in Sprague-Dawley rat at 200 mg/kg, po measured upto 72 hrs by LC-MS/MS analysis; format: ADME, organism-based; set-up: route oral, dose 200 mg/kg, time <=72; settings: in vivo
[7] = AUC(0 to infinity) in Sprague-Dawley rat at 200 mg/kg, po measured upto 72 hrs by LC-MS/MS analysis; format: ADME, organism-based; set-up: route oral, dose 200 mg/kg, time <=72; settings: in vivo, 72 h
HCT-116 [8] = assay: Antitumor activity against human HCT-116 cells xenografted in BALB/c nude mouse assessed as tumor growth inhibition at 200 mg/kg, po administered twice daily measured after 28 days; format: functional; settings: Mus musculus, HCT-116, po, 672 h, time 28 day, read-out: TGI
[9] = Toxicity in BALB/c nude mouse xenografted with human HCT-116 cells assessed as tolerability at 200 mg/kg, po administered twice daily measured after 28 days; format: organism-based; settings: in vivo, 672 h, time 28 day
HCT-116 [10] = assay: Antitumor activity against human HCT-116 cells xenografted in BALB/c nude mouse assessed as large areas of necrosis at 200 mg/kg, po administered twice daily measured after 28 days by H and E staining based optical microscopic analysis; format: functional, organism-based; settings: time 28.0 day
[11] = Free plasma protein in mouse; format: ADME, cell-free
[12] = Acute toxicity in BALB/c nude mouse assessed as kidney damage at 200 mg/kg, po administered twice daily for 4 weeks by H and E staining based optical microscopic analysis; format: organism-based; settings: in vivo, 672 h
[13] = target: T1, Glutaminase kidney isoform, mitochondrial (Mus musculus) (UniProt D3Z7P3); assay: In vivo inhibition of GLS1 in BALB/c mouse xenografted with human HCT-116 cells assessed as increase in glutamine level at 200 mg/kg, po; format: functional, organism-based
T1 sequence (whole entry): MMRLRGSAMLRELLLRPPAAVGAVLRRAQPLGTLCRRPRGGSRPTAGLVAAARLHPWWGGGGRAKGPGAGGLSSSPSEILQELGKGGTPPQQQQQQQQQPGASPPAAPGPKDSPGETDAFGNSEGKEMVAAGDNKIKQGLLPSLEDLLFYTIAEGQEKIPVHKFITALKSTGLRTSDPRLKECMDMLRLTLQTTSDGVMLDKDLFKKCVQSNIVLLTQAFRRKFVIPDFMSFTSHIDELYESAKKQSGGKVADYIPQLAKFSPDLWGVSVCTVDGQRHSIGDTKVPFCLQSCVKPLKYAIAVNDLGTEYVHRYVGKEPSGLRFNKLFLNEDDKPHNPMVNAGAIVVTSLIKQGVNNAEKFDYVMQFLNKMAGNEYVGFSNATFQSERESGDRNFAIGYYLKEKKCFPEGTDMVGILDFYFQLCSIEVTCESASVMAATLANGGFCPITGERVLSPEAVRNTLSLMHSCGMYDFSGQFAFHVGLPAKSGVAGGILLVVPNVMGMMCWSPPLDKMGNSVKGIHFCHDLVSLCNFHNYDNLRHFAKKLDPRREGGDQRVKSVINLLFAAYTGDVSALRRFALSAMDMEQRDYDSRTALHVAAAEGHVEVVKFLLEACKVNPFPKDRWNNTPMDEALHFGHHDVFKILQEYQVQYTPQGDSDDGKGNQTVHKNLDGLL

[14] = target: T1, Glutaminase kidney isoform, mitochondrial (Mus musculus); assay: In vivo inhibition of GLS1 in BALB/c mouse xenografted with human HCT-116 cells assessed as reduction in malate level at 200 mg/kg, po; format: functional, organism-based
[15] = target: T1, Glutaminase kidney isoform, mitochondrial (Mus musculus); assay: In vivo inhibition of GLS1 in BALB/c mouse xenografted with human HCT-116 cells assessed as reduction in aspartate level at 200 mg/kg, po; format: functional, organism-based
[16] = target: T1, Glutaminase kidney isoform, mitochondrial (Mus musculus); assay: In vivo inhibition of GLS1 in BALB/c mouse xenografted with human HCT-116 cells assessed as reduction in fumarate level at 200 mg/kg, po; format: functional, organism-based
[17] = target: T1, Glutaminase kidney isoform, mitochondrial (Mus musculus); assay: In vivo inhibition of GLS1 in BALB/c mouse xenografted with human HCT-116 cells assessed as reduction in alpha-ketoglutarate level at 200 mg/kg, po; format: functional, organism-based

In the case of O=C1Cc2cccc(c2)OCC/C=C/CCOc2cccc(c2)CC(=O)Nc2nnc(s2)CCCCc2ccc(nn2)N1, the Activity [1] is reported as “Non-Toxic”, the Activity (HCT-116 [2]) is reported as “Dose-Dependent Effect” and the solubility thermodynamic [3] is reported as 1.73 µg/mL (≈ 2.89 µM). The remaining at 2 h [4] was 89%, the half-life [5] was 342 min and the Cmax [6] was 1030 ng/mL. For the same compound, the AUC [7] was 6.064 µg·h/mL, the inhibition in vivo at 200 mg/kg (HCT-116 [8]) was 39% and the Activity [9] was “Non-Toxic”. The Activity (HCT-116 [10]) was “Active”, the fraction unbound [11] was 0.129 and the Activity [12] was “Non-Toxic”. The inhibition [13] was “Active”, the inhibition [14] was “Active” and the inhibition [15] was “Active”. The inhibition [16] was “Active” and the inhibition [17] was “Active”.
